# Measurements reported in publication PMC9312188, “Antioxidant Activity Evaluation and Assessment of the Binding Affinity to HSA of a New Catechol Hydrazinyl-Thiazole Derivative” (Antioxidants, 2022).
# Target: T1, human serum albumin (HSA) (Homo sapiens, UniProt P02768)
# T1 construct: gene ALB; commercial HSA from Sigma-Aldrich, full mature protein, untagged, monomeric
# Assay: isothermal titration calorimetry, independent binding model
# Details: read-out: Ka (converted)
# T1 sequence (P02768 25-609): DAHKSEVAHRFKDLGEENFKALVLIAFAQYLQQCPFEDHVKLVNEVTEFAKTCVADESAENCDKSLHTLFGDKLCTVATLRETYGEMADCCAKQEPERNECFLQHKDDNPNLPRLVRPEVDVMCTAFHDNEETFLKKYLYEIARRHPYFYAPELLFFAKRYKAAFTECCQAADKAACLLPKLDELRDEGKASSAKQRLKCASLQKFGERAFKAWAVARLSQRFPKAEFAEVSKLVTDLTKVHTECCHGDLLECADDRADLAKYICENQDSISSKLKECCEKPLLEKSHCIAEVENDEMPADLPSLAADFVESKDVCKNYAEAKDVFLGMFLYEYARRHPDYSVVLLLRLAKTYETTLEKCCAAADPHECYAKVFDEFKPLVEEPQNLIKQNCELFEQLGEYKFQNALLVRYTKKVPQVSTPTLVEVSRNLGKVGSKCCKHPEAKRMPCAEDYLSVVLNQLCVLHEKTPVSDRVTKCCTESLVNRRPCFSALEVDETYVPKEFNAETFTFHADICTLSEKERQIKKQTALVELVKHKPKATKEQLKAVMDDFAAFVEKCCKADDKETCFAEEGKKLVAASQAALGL
smiles,measurement,value
"Cc1csc(N/N=C/c2ccc(O)c(O)c2)n1 [compound 5, (E)-2-(3,4-dihydroxybenzylidene)-1-(4-methylthiazol-2-yl)hydrazin-1-ium chloride]",Kd,140 µM
